Assay results reported in ChEMBL document CHEMBL6109092, “Anti-HBV activity of (R)-gentiandiol, a metabolite of Swertiamarin, in transgenic mice: Insights from non-targeted serum metabolomics” (Bioorg Med Chem, 2025).
Activity calls are given as the source filed them. No cut-off for these calls is given here.

Tests used:
Type in all cases: functional, organism-based
Hepatitis B virus [1] = assay: In vivo antiviral activity against HBV infected in male C57BL/6NCrl mouse assessed as reduction in HBV-DNA level at 0.065 mg/kg, IG measured after 8 weeks by ELISA
Hepatitis B virus [2] = assay: In vivo antiviral activity against HBV infected in male C57BL/6NCrl mouse assessed as reduction in HBsAg level at 0.065 mg/kg, IG measured after 8 weeks by ELISA
Hepatitis B virus [3] = assay: In vivo antiviral activity against HBV infected in male C57BL/6NCrl mouse assessed as reduction in HBeAg level at 0.065 mg/kg, IG measured after 8 weeks by ELISA
Hepatitis B virus [4] = assay: In vivo antiviral activity against HBV infected in male C57BL/6NCrl mouse assessed as reduction in HBV-DNA level at 0.026 g/Kg, IG measured after 8 weeks by ELISA
Hepatitis B virus [5] = assay: In vivo antiviral activity against HBV infected in male C57BL/6NCrl mouse assessed as reduction in HBsAg level at 0.026 g/Kg, IG measured after 8 weeks by ELISA
Hepatitis B virus [6] = assay: In vivo antiviral activity against HBV infected in male C57BL/6NCrl mouse assessed as reduction in HBeAg level at 0.026 g/Kg, IG measured after 8 weeks by ELISA
Mus musculus [7] = assay: Reversal of arachidonic acid level in HBV infected male C57BL/6NCrl mouse serum at 0.026 mg/kg, IG by UPLC-Q/TOF-MS analysis.
Mus musculus [8] = assay: Reversal of citric acid level in HBV infected male C57BL/6NCrl mouse serum at 0.026 mg/kg, IG by UPLC-Q/TOF-MS analysis.
Mus musculus [9] = assay: Reversal of phenylalanine level in HBV infected male C57BL/6NCrl mouse serum at 0.026 mg/kg, IG by UPLC-Q/TOF-MS analysis.
Mus musculus [10] = assay: Reversal of tyrosine in HBV infected male C57BL/6NCrl mouse serum at 0.026 mg/kg, IG by UPLC-Q/TOF-MS analysis.
Hepatitis B virus [11] = assay: In vivo antiviral activity against HBV infected in male C57BL/6NCrl mouse assessed as reduction in HBV-DNA level at 6 mg/kg administered via tail vein measured after 8 weeks by ELISA
Hepatitis B virus [12] = assay: In vivo antiviral activity against HBV infected in male C57BL/6NCrl mouse assessed as reduction in HBsAg level at 6 mg/kg administered via tail vein measured after 8 weeks by ELISA
Hepatitis B virus [13] = assay: In vivo antiviral activity against HBV infected in male C57BL/6NCrl mouse assessed as reduction in HBeAg level at 6 mg/kg administered via tail vein measured after 8 weeks by ELISA
Hepatitis B virus [14] = assay: In vivo antiviral activity against HBV infected in male C57BL/6NCrl mouse assessed as reduction in HBV-DNA level at 3 mg/kg administered via tail vein measured after 8 weeks by ELISA
Hepatitis B virus [15] = assay: In vivo antiviral activity against HBV infected in male C57BL/6NCrl mouse assessed as reduction in HBV-DNA level at 1.5 mg/kg administered via tail vein measured after 8 weeks by ELISA
Hepatitis B virus [16] = assay: In vivo antiviral activity against HBV infected in male C57BL/6NCrl mouse assessed as reduction in HBsAg level at 3 mg/kg administered via tail vein measured after 8 weeks by ELISA
Hepatitis B virus [17] = assay: In vivo antiviral activity against HBV infected in male C57BL/6NCrl mouse assessed as reduction in HBsAg level at 1.5 mg/kg administered via tail vein measured after 8 weeks by ELISA
Hepatitis B virus [18] = assay: In vivo antiviral activity against HBV infected in male C57BL/6NCrl mouse assessed as reduction in HBeAg level at 3 mg/kg administered via tail vein measured after 8 weeks by ELISA
Hepatitis B virus [19] = assay: In vivo antiviral activity against HBV infected in male C57BL/6NCrl mouse assessed as reduction in HBeAg level at 1.5 mg/kg administered via tail vein measured after 8 weeks by ELISA
Hepatitis B virus [20] = assay: In vivo antiviral activity against HBV infected in male C57BL/6NCrl mouse assessed as reduction in HBV-DNA level administered via tail vein measured after 8 weeks by ELISA; details: dose 1.5-6 mg/kg
Mus musculus [21] = assay: Reduction in taurocholic acid in HBV infected male C57BL/6NCrl mouse serum at 50 to 150 mg/kg, administered via tail vein by UPLC-Q/TOF-MS analysis.; details: dose 50-150 mg/kg
Mus musculus [22] = assay: Reversal of phenylalanine level in HBV infected male C57BL/6NCrl mouse serum at 50 to 150 mg/kg, administered via tail vein by UPLC-Q/TOF-MS analysis.; details: dose 50-150 mg/kg
Mus musculus [23] = assay: Reversal of tyrosine in HBV infected male C57BL/6NCrl mouse serum at 50 to 150 mg/kg, administered via tail vein by UPLC-Q/TOF-MS analysis.; details: dose 50-150 mg/kg
Mus musculus [24] = assay: Reversal of citric acid level in HBV infected male C57BL/6NCrl mouse serum at 50 to 150 mg/kg, administered via tail vein by UPLC-Q/TOF-MS analysis.; details: dose 50-150 mg/kg
Mus musculus [25] = assay: Reversal of arachidonic acid level in HBV infected male C57BL/6NCrl mouse serum at 50 to 150 mg/kg, administered via tail vein by UPLC-Q/TOF-MS analysis.; details: dose 50-150 mg/kg

**Q.** Which results are given for C=C1[C@H](CO)[C@@H](O)C[C@@H]1n1cnc2c(=O)[nH]c(N)nc21?
**A.** Activity (Hepatitis B virus [1]): Active; Activity (Hepatitis B virus [2]): Active; Activity (Hepatitis B virus [3]): Active

**Q.** For C=C[C@H]1[C@H](O[C@@H]2O[C@H](CO)[C@@H](O)[C@H](O)[C@H]2O)OC=C2C(=O)OCC[C@]21O, which Activity (Hepatitis B virus [4]) is on record?
**A.** The Activity was “Active”.

**Q.** What about the Activity (Hepatitis B virus [5]) of the same molecule?
**A.** Its Activity is “Active”.

**Q.** What about the Activity (Hepatitis B virus [6]) of the same molecule?
**A.** Its Activity is “Active”.

**Q.** What about the Activity (Mus musculus [7]) of the same molecule?
**A.** Its Activity is “Active”.

**Q.** What about the Activity (Mus musculus [8]) of the same molecule?
**A.** The Activity was “Active”.

**Q.** And the Activity (Mus musculus [9])?
**A.** The Activity was “Active”.

**Q.** And the Activity (Mus musculus [10])?
**A.** Its Activity is “Active”.

**Q.** How did the Activity (Hepatitis B virus [11]) turn out when O=C1OCCc2c1cncc2[C@H](O)CO was run?
**A.** The Activity was “inactive”.

**Q.** What about the Activity (Hepatitis B virus [12]) of the same molecule?
**A.** The Activity was “inactive”.

**Q.** And the Activity (Hepatitis B virus [13])?
**A.** Its Activity is “inactive”.

**Q.** For O=C1OCCc2c1cncc2[C@@H](O)CO, which Activity (Hepatitis B virus [11]) is on record?
**A.** Its Activity is “Active”.

**Q.** And the Activity (Hepatitis B virus [14])?
**A.** Its Activity is “Active”.

**Q.** And the Activity (Hepatitis B virus [15])?
**A.** Its Activity is “Active”.

**Q.** And the Activity (Hepatitis B virus [12])?
**A.** The Activity was “Active”.

**Q.** And the Activity (Hepatitis B virus [16])?
**A.** Its Activity is “Active”.

**Q.** And the Activity (Hepatitis B virus [17])?
**A.** Its Activity is “Active”.

**Q.** And the Activity (Hepatitis B virus [13])?
**A.** Its Activity is “Active”.

**Q.** And the Activity (Hepatitis B virus [18])?
**A.** The Activity was “Active”.

**Q.** What about the Activity (Hepatitis B virus [19]) of the same molecule?
**A.** Its Activity is “Active”.

**Q.** What about the Activity (Hepatitis B virus [20]) of the same molecule?
**A.** The Activity was “Dose-dependent-effect”.

**Q.** And the Activity (Mus musculus [21])?
**A.** Its Activity is “Active”.

**Q.** And the Activity (Mus musculus [22])?
**A.** Its Activity is “Active”.

**Q.** What about the Activity (Mus musculus [23]) of the same molecule?
**A.** Its Activity is “Active”.

**Q.** And the Activity (Mus musculus [24])?
**A.** Its Activity is “Active”.

**Q.** And the Activity (Mus musculus [25])?
**A.** The Activity was “Active”.
